Reference: patent publication US20180051309A1, “METHODS TO ASSESS MONITOR AND CONTROL BACTERIAL BIOFILMS” (ExxonMobil Research and Engineering Company, priority 2016, published 2018)

Tested on: prophage regions DVU0189-DVU0221 and DVU2847-DVU2879
Experiment: normalized gene expression (FPKM) of two prophage regions in planktonic and biofilm samples
Format: cell-based, Desulfovibrio vulgaris
Conditions: biofilm controlled via indole, FIG. 1
Excerpt: Overexpression of prophages is observed in biofilm samples when compared to planktonic samples.

c1ccc2[nH]ccc2c1 [indole]
phage genes expression: repressed phage genes expression
